# Like-named read-outs stand apart in the source and are kept apart here.
# Columns and labels:
# MEC-1 = assay: MTS proliferation assay; type: cell-based; settings: Homo sapiens
# FLT3(N841I) = FLT3(N841I) (Homo sapiens, UniProt P36888, N841I); assay: KINOMEscan: FLT3(N841I); type: binding; settings: 1000 nM, read-out: Percent Control
# VEGFR2 = VEGFR2 (Homo sapiens, UniProt P35968); assay: KINOMEscan: VEGFR2; type: binding; settings: 100 nM, read-out: Percent Control
# CSNK1G1 = CSNK1G1 (Homo sapiens, UniProt Q9HCP0); assay: KINOMEscan: CSNK1G1; type: binding; settings: 1000 nM, read-out: Percent Control
# BIKE = BIKE (Homo sapiens, UniProt Q9NSY1); assay: KINOMEscan: BIKE; type: binding; settings: 1000 nM, read-out: Percent Control
# BIKE, sequence (Q9NSY1 whole entry): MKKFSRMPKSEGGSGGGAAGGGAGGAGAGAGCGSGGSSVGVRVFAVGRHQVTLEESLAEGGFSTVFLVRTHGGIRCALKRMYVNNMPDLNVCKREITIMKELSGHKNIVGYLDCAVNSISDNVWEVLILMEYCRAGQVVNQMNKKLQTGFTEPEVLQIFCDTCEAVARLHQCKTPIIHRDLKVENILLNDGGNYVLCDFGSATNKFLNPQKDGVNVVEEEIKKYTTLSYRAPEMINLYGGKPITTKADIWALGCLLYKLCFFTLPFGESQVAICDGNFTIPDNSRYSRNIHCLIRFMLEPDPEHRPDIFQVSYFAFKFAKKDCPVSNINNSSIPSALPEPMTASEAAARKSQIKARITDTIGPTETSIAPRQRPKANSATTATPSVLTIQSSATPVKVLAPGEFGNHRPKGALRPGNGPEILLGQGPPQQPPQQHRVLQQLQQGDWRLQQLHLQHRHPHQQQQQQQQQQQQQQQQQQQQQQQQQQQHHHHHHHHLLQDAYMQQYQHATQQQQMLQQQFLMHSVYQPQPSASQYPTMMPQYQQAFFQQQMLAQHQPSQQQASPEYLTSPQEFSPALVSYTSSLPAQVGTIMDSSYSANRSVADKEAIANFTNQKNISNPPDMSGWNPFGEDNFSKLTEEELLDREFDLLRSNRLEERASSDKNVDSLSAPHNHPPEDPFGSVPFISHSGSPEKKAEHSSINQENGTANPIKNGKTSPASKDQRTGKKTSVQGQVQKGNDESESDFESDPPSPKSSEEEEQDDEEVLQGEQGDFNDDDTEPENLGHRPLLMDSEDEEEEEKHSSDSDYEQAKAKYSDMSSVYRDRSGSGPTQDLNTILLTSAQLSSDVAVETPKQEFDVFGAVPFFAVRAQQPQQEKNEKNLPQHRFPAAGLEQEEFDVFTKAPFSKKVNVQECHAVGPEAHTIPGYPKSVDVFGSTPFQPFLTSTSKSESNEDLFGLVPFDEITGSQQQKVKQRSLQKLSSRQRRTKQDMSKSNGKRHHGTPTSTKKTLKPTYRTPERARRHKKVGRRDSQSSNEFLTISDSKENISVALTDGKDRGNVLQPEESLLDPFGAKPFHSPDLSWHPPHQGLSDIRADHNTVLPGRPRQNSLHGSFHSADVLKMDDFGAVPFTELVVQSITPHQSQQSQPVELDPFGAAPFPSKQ
# ULK3 = ULK3 (Homo sapiens, UniProt Q6PHR2); assay: KINOMEscan: ULK3; type: binding; settings: 100 nM, read-out: Percent Control
# [1] = target: Platelet Activating Factor (PAF) (Homo sapiens, UniProt P25105); assay: Eurofins Diversity Panel; type: binding; settings: hum, Conc. 10 μM
# CDK5 = CDK5 (Homo sapiens, UniProt Q00535); assay: KINOMEscan: CDK5; type: binding; settings: 1000 nM, read-out: Percent Control
# EPHB4 = EPHB4 (Homo sapiens, UniProt P54760); assay: KINOMEscan: EPHB4; type: binding; settings: 1000 nM, read-out: Percent Control
# EPHB4, sequence (P54760 16-987): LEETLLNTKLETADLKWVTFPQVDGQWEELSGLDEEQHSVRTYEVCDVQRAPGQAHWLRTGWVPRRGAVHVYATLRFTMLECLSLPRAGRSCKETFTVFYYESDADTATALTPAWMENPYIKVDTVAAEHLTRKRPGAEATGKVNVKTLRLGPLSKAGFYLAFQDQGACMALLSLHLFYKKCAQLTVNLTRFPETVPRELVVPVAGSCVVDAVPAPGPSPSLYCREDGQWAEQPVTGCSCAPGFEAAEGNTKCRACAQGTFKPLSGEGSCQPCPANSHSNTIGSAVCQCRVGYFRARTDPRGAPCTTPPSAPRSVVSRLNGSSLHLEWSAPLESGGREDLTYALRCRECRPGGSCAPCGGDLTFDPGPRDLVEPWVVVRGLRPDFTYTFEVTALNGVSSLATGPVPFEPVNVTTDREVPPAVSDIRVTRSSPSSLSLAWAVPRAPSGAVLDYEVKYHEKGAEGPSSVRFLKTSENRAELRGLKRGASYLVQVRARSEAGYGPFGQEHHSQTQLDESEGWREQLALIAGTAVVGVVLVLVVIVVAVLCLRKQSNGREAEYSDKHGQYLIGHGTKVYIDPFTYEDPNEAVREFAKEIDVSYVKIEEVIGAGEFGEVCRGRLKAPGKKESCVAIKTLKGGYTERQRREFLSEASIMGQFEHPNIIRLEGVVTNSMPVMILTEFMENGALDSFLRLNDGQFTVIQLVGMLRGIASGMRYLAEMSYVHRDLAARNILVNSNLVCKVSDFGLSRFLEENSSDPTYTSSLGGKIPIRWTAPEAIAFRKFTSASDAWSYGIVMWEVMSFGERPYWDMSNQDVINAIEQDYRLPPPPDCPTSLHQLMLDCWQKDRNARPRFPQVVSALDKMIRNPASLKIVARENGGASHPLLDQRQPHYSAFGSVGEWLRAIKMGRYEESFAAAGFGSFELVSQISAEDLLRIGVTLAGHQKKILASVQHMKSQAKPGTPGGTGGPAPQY
# SRMS = SRMS (Homo sapiens, UniProt Q9H3Y6); assay: KINOMEscan: SRMS; type: binding; settings: 100 nM, read-out: Percent Control
# [2] = target: Serotonin (5-Hydroxytryptamine) 5-HT3) (Homo sapiens, UniProt P46098); assay: Eurofins Diversity Panel; type: binding; settings: hum, Conc. 10 μM
# Serotonin (5-Hydroxytryptamine) 5-HT3), sequence (P46098 24-478): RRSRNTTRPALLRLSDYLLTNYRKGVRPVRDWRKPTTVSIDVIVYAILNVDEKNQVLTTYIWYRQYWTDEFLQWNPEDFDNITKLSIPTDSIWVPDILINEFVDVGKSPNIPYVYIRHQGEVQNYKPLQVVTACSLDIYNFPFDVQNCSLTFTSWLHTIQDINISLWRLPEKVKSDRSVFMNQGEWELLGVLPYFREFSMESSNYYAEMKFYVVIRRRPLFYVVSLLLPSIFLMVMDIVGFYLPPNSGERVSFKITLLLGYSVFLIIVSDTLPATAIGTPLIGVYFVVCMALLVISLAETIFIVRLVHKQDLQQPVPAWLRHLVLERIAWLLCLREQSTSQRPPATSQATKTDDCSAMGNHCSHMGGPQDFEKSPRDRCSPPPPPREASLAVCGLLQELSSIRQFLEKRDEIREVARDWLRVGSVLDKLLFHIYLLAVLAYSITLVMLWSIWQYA
# WNK3 = WNK3 (Homo sapiens, UniProt Q9BYP7); assay: KINOMEscan: WNK3; type: binding; settings: 100 nM, read-out: Percent Control
# AKT3 = AKT3 (Homo sapiens, UniProt Q9Y243); assay: KINOMEscan: AKT3; type: binding; settings: 1000 nM, read-out: Percent Control
# CDC2L1 = CDC2L1 (Homo sapiens, UniProt P21127); assay: KINOMEscan: CDC2L1; type: binding; settings: 1000 nM, read-out: Percent Control
# [3] = system: Calcium Channel L-Type Dihydropyridine; assay: Eurofins Diversity Panel; type: binding; settings: rat, Conc. 10 μM
# TNK2 = TNK2 (Homo sapiens, UniProt Q07912); assay: KINOMEscan: TNK2; type: binding; settings: 100 nM, read-out: Percent Control
# BLK = BLK (Homo sapiens, UniProt P51451); assay: KINOMEscan: BLK; type: binding; settings: 1000 nM, read-out: Percent Control
# [4] = target: RSK1(Kin.Dom.1-N-terminal) (Homo sapiens, UniProt Q15418); assay: KINOMEscan: RSK1(Kin.Dom.1-N-terminal); type: binding; settings: 100 nM, read-out: Percent Control
# STK33 = STK33 (Homo sapiens, UniProt Q9BYT3); assay: KINOMEscan: STK33; type: binding; settings: 100 nM, read-out: Percent Control
# BRSK2 = BRSK2 (Homo sapiens, UniProt Q8IWQ3); assay: KINOMEscan: BRSK2; type: binding; settings: 1000 nM, read-out: Percent Control
# SRPK1 = SRPK1 (Homo sapiens, UniProt Q96SB4); assay: KINOMEscan: SRPK1; type: binding; settings: 100 nM, read-out: Percent Control
# MKNK1 = MKNK1 (Homo sapiens, UniProt Q9BUB5); assay: KINOMEscan: MKNK1; type: binding; settings: 1000 nM, read-out: Percent Control
# IRAK3 = IRAK3 (Homo sapiens, UniProt Q9Y616); assay: KINOMEscan: IRAK3; type: binding; settings: 1000 nM, read-out: Percent Control
# MAP4K5 = MAP4K5 (Homo sapiens, UniProt Q9Y4K4); assay: KINOMEscan: MAP4K5; type: binding; settings: 1000 nM, read-out: Percent Control
# RIOK2 = RIOK2 (Homo sapiens, UniProt Q9BVS4); assay: KINOMEscan: RIOK2; type: binding; settings: 100 nM, read-out: Percent Control
# CSK = CSK (Homo sapiens, UniProt P41240); assay: KINOMEscan: CSK; type: binding; settings: 1000 nM, read-out: Percent Control
# CSK, sequence (P41240 whole entry): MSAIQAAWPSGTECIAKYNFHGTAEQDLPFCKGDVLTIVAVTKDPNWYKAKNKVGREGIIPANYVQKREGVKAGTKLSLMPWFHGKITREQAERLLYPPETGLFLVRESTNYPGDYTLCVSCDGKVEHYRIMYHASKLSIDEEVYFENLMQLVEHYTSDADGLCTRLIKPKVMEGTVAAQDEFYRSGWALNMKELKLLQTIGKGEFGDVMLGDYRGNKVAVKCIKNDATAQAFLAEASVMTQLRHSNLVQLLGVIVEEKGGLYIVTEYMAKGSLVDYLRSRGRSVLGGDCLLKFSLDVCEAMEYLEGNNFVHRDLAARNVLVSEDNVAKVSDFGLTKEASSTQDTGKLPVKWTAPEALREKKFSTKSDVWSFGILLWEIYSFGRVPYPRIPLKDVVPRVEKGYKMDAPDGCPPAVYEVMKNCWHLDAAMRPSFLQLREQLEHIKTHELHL
# RET(V804L) = RET(V804L) (Homo sapiens, UniProt P07949, V804L); assay: KINOMEscan: RET(V804L); type: binding; settings: 100 nM, read-out: Percent Control
# TTK = TTK (Homo sapiens, UniProt P33981); assay: KINOMEscan: TTK; type: binding; settings: 100 nM, read-out: Percent Control
# TTK, sequence (P33981 whole entry): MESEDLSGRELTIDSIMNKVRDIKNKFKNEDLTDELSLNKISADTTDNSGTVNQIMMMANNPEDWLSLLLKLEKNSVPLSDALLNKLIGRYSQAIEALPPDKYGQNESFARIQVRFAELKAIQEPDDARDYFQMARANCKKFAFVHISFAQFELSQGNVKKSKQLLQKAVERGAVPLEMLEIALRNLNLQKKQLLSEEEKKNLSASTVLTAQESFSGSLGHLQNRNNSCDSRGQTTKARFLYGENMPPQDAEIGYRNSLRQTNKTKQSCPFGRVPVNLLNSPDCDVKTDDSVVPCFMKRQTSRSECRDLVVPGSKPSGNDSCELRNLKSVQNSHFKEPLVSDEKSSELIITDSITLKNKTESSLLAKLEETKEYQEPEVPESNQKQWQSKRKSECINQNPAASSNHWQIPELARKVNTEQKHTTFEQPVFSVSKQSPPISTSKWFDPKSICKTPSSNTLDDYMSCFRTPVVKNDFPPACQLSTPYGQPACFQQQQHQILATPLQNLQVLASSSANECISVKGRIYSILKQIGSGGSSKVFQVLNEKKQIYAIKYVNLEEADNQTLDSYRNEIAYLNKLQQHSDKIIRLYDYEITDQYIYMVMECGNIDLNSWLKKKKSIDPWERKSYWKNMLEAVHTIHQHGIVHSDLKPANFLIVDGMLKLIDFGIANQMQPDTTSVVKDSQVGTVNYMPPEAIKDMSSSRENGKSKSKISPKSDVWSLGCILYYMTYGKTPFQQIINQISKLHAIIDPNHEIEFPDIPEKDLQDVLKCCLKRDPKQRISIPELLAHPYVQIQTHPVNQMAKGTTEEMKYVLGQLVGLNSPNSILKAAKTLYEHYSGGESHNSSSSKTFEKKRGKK
# α2C receptor = target: T1, α2C receptor (Homo sapiens, UniProt P18825); assay: Eurofins Diversity Panel: adrenergic α2C receptor; type: binding
# T1 construct: purchased Eurofins
# T1 sequence (P18825 whole entry): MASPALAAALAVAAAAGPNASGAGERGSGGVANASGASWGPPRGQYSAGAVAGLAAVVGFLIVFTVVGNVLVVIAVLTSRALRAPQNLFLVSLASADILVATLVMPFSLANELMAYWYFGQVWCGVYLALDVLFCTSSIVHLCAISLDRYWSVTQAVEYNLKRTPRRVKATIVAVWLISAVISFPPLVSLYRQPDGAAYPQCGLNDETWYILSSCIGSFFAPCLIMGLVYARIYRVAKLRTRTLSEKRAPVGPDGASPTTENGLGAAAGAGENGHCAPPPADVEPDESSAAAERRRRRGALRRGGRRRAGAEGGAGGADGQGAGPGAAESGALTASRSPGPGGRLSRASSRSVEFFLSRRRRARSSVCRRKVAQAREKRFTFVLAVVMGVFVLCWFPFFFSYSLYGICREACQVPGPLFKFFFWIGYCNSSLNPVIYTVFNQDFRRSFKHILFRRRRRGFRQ
# HIPK4 = HIPK4 (Homo sapiens, UniProt Q8NE63); assay: KINOMEscan: HIPK4; type: binding; settings: 1000 nM, read-out: Percent Control
# LIMK1 = LIMK1 (Homo sapiens, UniProt P53667); assay: KINOMEscan: LIMK1; type: binding; settings: 1000 nM, read-out: Percent Control
# LIMK1, sequence (P53667 whole entry): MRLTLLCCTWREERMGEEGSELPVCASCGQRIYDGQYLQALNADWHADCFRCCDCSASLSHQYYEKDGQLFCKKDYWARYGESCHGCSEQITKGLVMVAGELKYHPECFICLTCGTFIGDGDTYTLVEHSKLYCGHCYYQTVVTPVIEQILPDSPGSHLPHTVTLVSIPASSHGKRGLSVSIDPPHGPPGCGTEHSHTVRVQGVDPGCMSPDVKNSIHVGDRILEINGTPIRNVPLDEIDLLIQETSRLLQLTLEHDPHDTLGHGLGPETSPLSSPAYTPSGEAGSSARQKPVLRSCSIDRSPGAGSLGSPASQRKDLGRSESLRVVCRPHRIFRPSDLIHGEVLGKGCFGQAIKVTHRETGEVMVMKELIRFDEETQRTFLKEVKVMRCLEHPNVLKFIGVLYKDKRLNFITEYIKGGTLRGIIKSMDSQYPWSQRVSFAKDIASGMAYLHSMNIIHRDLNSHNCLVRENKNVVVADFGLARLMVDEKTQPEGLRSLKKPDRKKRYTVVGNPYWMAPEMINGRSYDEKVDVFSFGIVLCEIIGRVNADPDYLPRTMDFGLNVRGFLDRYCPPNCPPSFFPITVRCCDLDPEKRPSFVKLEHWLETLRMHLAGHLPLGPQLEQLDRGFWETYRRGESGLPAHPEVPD
# ERK3 = ERK3 (Homo sapiens, UniProt Q16659); assay: KINOMEscan: ERK3; type: binding; settings: 1000 nM, read-out: Percent Control
# MLCK = MLCK (Homo sapiens, UniProt Q32MK0); assay: KINOMEscan: MLCK; type: binding; settings: 1000 nM, read-out: Percent Control
compound,measurement,setting,value
COc1cc(F)ccc1-c1cc(Nc2cc(CS(C)(=N)=O)ccn2)ncc1F (stereo not shown) [VIP152],IC50,"MEC-1; MEC1, 24, 48, and 72 h, read-out: proliferation IC50",0.15 to 1 µM
same,IC50,"MEC-1; MEC1, two-hour drugging followed by washout, MTS after 72 h, read-out: 50% growth inhibition",1.7 µM
same,remaining binding at 1 µM,FLT3(N841I),54%
same,remaining binding at 0.1 µM,VEGFR2,89%
same,remaining binding at 1 µM,CSNK1G1,91%
same,remaining binding at 1 µM,BIKE,38%
same,remaining binding at 0.1 µM,ULK3,96%
same,inhibition at 10 µM,[1],6%
same,remaining binding at 1 µM,CDK5,83%
same,remaining binding at 1 µM,EPHB4,100%
same,remaining binding at 0.1 µM,SRMS,98%
same,inhibition at 10 µM,[2],-3%
same,remaining binding at 0.1 µM,WNK3,95%
same,remaining binding at 1 µM,AKT3,98%
same,remaining binding at 1 µM,CDC2L1,96%
same,% Inh.,[3],7%
same,remaining binding at 0.1 µM,TNK2,100%
same,remaining binding at 1 µM,BLK,76%
same,remaining binding at 0.1 µM,[4],100%
same,remaining binding at 0.1 µM,STK33,88%
same,remaining binding at 1 µM,BRSK2,100%
same,remaining binding at 0.1 µM,SRPK1,100%
same,remaining binding at 1 µM,MKNK1,98%
same,remaining binding at 1 µM,IRAK3,52%
same,remaining binding at 1 µM,MAP4K5,41%
same,remaining binding at 0.1 µM,RIOK2,100%
same,remaining binding at 1 µM,CSK,92%
same,remaining binding at 0.1 µM,RET(V804L),100%
same,remaining binding at 0.1 µM,TTK,95%
same,IC50,α2C receptor,0.34 µM
same,remaining binding at 1 µM,HIPK4,68%
same,remaining binding at 1 µM,LIMK1,92%
same,remaining binding at 1 µM,ERK3,84%
same,remaining binding at 1 µM,MLCK,100%

# — publication PMC9898036, “VIP152 is a selective CDK9 inhibitor with pre-clinical in vitro and in vivo efficacy in chronic lymphocytic leukemia” (Leukemia, 2022)
